Consider one compound from ChEMBL document CHEMBL4828744, “Design, synthesis and biological evaluation of pyridinylmethylenepiperidine derivatives as potent 5-HT1F receptor agonists for migraine therapy” (Eur J Med Chem, 2021).

Series [1] in a line: Cmax in monkey at 5 mg/kg, ig administered for 28 days by LC-MS/MS analysis. The series is classed as ADME, organism-based, Macaca mulatta. Set-up: route intragastric, time 28 day, dose 5 mg/kg. To be noted: rhesus monkey, in vivo, po.
Series [2] in a line: Bioavailability in Sprague-Dawley rat at 5 mg/kg, ig measured for 24 hrs by LC-MS/MS analysis. The series is classed as ADME, organism-based. Conditions: in vivo, po.
Series [3] is described as follows: Toxicity in Sprague-Dawley rat assessed as effect on food intake at 150 mg/kg/day, ig administered for 28 days. The series is classed as organism-based. To be noted: in vivo, po, 672 h, time 28 day.
Series [4] can be described thus: AUC(0 to t) in Sprague-Dawley rat at 1 mg/kg, iv measured for 24 hrs by LC-MS/MS analysis. The series is classed as ADME, organism-based. Set-up: time 24 hrs, dose 1 mg/kg. To be noted: in vivo.
The target of series [5] is 5-HT1B/5-HT1F (Homo sapiens) (UniProt P30939+P28222). Briefly: Selectivity ratio of IC50 for human 5HT1B receptor to IC50 for human 5HT1F receptor. The format is protein assay.
Sequence of 5-HT1B/5-HT1F (Homo sapiens) (P28222 whole entry, looked up, one chain of several): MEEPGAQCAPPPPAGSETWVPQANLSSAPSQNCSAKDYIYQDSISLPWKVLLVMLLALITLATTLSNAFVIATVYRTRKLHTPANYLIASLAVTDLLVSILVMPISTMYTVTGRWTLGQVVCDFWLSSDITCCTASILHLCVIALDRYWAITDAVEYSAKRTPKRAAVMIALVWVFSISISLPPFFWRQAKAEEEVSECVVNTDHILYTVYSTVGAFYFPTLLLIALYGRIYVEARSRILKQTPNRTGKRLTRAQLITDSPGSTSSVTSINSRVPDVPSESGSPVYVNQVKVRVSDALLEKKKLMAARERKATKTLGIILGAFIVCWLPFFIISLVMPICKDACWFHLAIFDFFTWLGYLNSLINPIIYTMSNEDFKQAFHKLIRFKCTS
Series [6] can be described thus: AUC (0 to 24hrs) in Sprague-Dawley rat at 15 mg/kg, ig by LC-MS/MS analysis. The format is ADME, organism-based. Conditions: in vivo, po. Set-up: time < 24 hr, route intragastric, dose 15 mg/kg.
Series [7] can be described thus: AUC (0 to 24hrs) in monkey at 1 mg/kg, ig by LC-MS/MS analysis. Set-up: time < 24 hr, route intragastric, dose 1 mg/kg. The format is ADME, organism-based, Macaca mulatta. To be noted: rhesus monkey, in vivo, po.
Series [8] addresses T1, 5-hydroxytryptamine receptor 3A (Homo sapiens, UniProt P46098).
T1 sequence (P46098 whole entry): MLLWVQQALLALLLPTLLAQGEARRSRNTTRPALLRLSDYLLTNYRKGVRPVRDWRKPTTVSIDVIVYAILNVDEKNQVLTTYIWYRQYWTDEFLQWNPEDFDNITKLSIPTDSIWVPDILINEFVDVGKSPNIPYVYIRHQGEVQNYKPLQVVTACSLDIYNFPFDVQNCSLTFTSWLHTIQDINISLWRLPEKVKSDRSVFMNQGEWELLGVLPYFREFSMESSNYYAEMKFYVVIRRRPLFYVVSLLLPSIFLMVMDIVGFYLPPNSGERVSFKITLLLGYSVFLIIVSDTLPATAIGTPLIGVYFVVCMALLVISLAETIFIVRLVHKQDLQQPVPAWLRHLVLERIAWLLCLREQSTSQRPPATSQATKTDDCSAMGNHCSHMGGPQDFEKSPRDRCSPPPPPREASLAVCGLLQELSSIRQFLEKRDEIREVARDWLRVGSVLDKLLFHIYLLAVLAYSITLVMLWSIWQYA
Briefly: Binding affinity to human 5HT3 receptor.

Series [9] can be described thus: Cmax in Sprague-Dawley rat at 50 mg/kg, ig administered for 28 days by LC-MS/MS analysis. The series is classed as ADME, organism-based. Set-up: route intragastric, time 28 day, dose 50 mg/kg. To be noted: in vivo, po.
The nature of series [10]: AUC (0 to 24hrs) in Sprague-Dawley rat at 50 mg/kg, ig by LC-MS/MS analysis. The series is classed as ADME, organism-based. Set-up: time < 24 hr, route intragastric, dose 50 mg/kg. Conditions: in vivo, po.
Series [11] can be described thus: Volume of distribution at steady state in Sprague-Dawley rat at 1 mg/kg, iv measured for 24 hrs by LC-MS/MS analysis. The series is classed as ADME, organism-based. Conditions: in vivo, read-out: Vdss.
A further series is filed under the species Homo sapiens. As to the kind of experiment: Selectivity ratio of IC50 for human 5HT2C receptor to IC50 for human 5HT1F receptor.
Series [12] deals with 5-hydroxytryptamine receptor 2A (Homo sapiens, UniProt P28223). Briefly: Binding affinity to human 5HT2A receptor.
Sequence of 5-hydroxytryptamine receptor 2A (P28223 whole entry): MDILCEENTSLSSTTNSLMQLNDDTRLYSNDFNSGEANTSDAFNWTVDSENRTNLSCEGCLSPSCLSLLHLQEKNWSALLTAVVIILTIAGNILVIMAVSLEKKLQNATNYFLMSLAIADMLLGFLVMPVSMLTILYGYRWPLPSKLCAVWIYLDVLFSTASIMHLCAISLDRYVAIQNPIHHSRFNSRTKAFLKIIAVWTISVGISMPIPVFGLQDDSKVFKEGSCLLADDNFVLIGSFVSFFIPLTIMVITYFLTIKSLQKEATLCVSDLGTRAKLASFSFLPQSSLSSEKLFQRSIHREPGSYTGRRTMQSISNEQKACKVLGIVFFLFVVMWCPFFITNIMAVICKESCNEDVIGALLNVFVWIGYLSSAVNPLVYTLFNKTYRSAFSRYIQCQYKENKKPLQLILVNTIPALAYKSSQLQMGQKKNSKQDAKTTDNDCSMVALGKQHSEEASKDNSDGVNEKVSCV
Series [13] can be described thus: Clearance in Sprague-Dawley rat at 1 mg/kg, iv measured for 24 hrs by LC-MS/MS analysis. The series is classed as ADME, organism-based. To be noted: in vivo.
Series [14] can be described thus: Half life in Sprague-Dawley rat at 5 mg/kg, ig measured for 24 hrs by LC-MS/MS analysis. The format is ADME, organism-based. Conditions: in vivo, po.
The target of series [15] is T2, 5-hydroxytryptamine receptor 1F (Homo sapiens, UniProt P30939).
T2 sequence (P30939 whole entry): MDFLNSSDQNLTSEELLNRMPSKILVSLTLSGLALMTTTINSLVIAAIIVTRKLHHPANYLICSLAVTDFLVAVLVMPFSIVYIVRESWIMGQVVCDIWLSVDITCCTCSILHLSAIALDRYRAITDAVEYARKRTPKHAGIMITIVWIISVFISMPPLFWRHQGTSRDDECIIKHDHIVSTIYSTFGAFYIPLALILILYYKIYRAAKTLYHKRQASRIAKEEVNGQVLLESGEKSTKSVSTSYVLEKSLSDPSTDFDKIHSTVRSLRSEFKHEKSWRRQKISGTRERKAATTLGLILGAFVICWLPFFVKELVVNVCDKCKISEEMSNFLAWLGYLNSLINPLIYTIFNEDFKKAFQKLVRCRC
Briefly: Binding affinity to human 5HT1F receptor.

The target of series [16] is 5-hydroxytryptamine receptor 1B (Homo sapiens, UniProt P28222). Briefly: Binding affinity to human 5HT1B receptor.
Sequence of 5-hydroxytryptamine receptor 1B (P28222 whole entry): as the sequence (P28222 whole entry, looked up, one chain of several) above

What is called Cmax is the maximum level reached in the sampled fluid or tissue. As usually defined, the bioavailability is the share of a dose that reaches the circulation, judged against a reference dose that is usually intravenous. As a reminder, the AUC(0-t) is the area under the concentration-time curve up to a stated or last time point. By IC50 is commonly meant the point on the concentration scale where inhibition reaches its midpoint. For orientation: clearance means the volume of plasma or blood freed of the substance per unit of time. The term half-life denotes how long it takes for the measured level to halve. Take `CN1CCC(=C(F)c2cccc(NC(=O)c3c(F)cc(F)cc3F)n2)CC1`: the peak concentration (Cmax) worked out at 3410 ng/mL in series [1] and 523 ng/mL in [9]. In addition, the bioavailability in series [2] was 64%. The Activity result in series [3] was “Non-Toxic”. Moreover, the AUC(0-t) at 24 h in [4] came out at 128 ng·h/mL; in [6] it was 849 ng·h/mL; in series [7] it was 3200 ng·h/mL; in series [10], 5290 ng·h/mL. Moreover, the Ratio IC50 (in [5]; in the series filed under Homo sapiens) was above 10000 throughout. The IC50 is above 10000 nM in series [8], 4870 nM in [12], 0.32 nM in [15] and 2160 nM in series [16]. In addition, the Vd in series [11] came out at 12.8 L/kg. This compound gave a clearance in series [13] of 127 mL/min/kg. The compound also showed a half-life in series [14] of 2.95 h.
